Source: patent publication US20170057954A1, “SUBSTITUTED IMIDAZO[1,2-A]PYRIDINECARBOXAMIDES AND THEIR USE” (Bayer Pharma Aktiengesellschaft, priority 2014, published 2017)

System: recombinant guanylate cyclase reporter cell line
Experiment: Effect on a recombinant guanylate cyclase reporter cell line
Format: cell-based
Conditions: in some cases mean values for individual determinations, read-out: MEC (minimum effective concentration)
Protocol: B-2. Effect on a Recombinant Guanylate Cyclase Reporter Cell Line
The cellular activity of the compounds according to the invention is determined using a recombinant guanylate cyclase reporter cell line, as described in F. Wunder et al., Anal. Biochem. 339, 104-112 (2005).
Representative MEC values (MEC=minimum effective concentration) for the compounds of the invention are shown in the table below (in some cases as mean values for individual determinations): […]

Compound | minimal effective concentration [µM]
Cc1cc(OCc2c(F)cccc2F)c2nc(C)c(C(=O)NNC(=O)C3CCCC3)n2c1 [Example 31] | 0.3
COCC(=O)NNC(=O)c1c(C)nc2c(OCc3c(F)cccc3F)cc(C)cn12 [Example 32] | 1
COCCC(=O)NNC(=O)c1c(C)nc2c(OCc3c(F)cccc3F)cc(C)cn12 [Example 33] | 0.3
Cc1cc(OCc2c(F)cccc2F)c2nc(C)c(C(=O)NNc3ccc4ccccc4c3)n2c1 [Example 34] | 1
Cc1cc(OCc2c(F)cccc2F)c2nc(C)c(C(=O)NNc3nnc(C(C)(C)C)s3)n2c1 [Example 35] | 3
Cc1cc(OCc2c(F)cccc2F)c2nc(C)c(C(=O)NNc3cccc(Oc4ccccc4)c3)n2c1 [Example 36] | 10
Cc1cc(OCc2c(F)cccc2F)c2nc(C)c(C(=O)NNC(=O)CN(C)C)n2c1 [Example 37] | 0.1
Cc1cc(OCc2c(F)cccc2F)c2nc(C)c(C(=O)NNC(C)(C)C)n2c1 [Example 38] | 0.3
Cc1cccc(NNC(=O)c2c(C)nc3c(OCc4c(F)cccc4F)cc(C)cn23)c1 [Example 39] | 0.3
Cc1cc(OCc2c(F)cccc2F)c2nc(C)c(C(=O)NNc3ccccn3)n2c1 [Example 40] | 0.3
Cc1cc(OCc2c(F)cccc2F)c2nc(C)c(C(=O)NNCC(F)(F)F)n2c1 [Example 41] | 0.3
CCCCCCC(C)NNC(=O)c1c(C)nc2c(OCc3c(F)cccc3F)cc(C)cn12 (centres unmarked) [Example 42] | 3
COc1cc(OC)nc(NNC(=O)c2c(C)nc3c(OCc4c(F)cccc4F)cc(C)cn23)n1 [Example 43] | 0.3
CCCCCCC(CCC)NNC(=O)c1c(C)nc2c(OCc3c(F)cccc3F)cc(C)cn12 (centres unmarked) [Example 44] | 3
Cc1cc(OCc2c(F)cccc2F)c2nc(C)c(C(=O)NNc3cccc(C(F)(F)F)c3)n2c1 [Example 45] | 0.3
Cc1cc(OCc2c(F)cccc2F)c2nc(C)c(C(=O)NNc3ccc(Cl)cc3)n2c1 [Example 46] | 0.1
Cc1cc(OCc2c(F)cccc2F)c2nc(C)c(C(=O)NNc3ccc(C(C)(C)C)cc3)n2c1 [Example 47] | 3
Cc1cc(OCc2c(F)cccc2F)c2nc(C)c(C(=O)NNc3ccc(OC(F)(F)F)cc3)n2c1 [Example 48] | 1
Cc1cc(OCc2c(F)cccc2F)c2nc(C)c(C(=O)NNCCc3ccccc3)n2c1 [Example 49] | 1
Cc1cc(OCc2c(F)cccc2F)c2nc(C)c(C(=O)NNC(=O)c3nccs3)n2c1 [Example 50] | 1
Cc1cc(OCc2c(F)cccc2F)c2nc(C)c(C(=O)NN(C)c3ccccc3)n2c1 [Example 51] | 0.1
Cc1cc(OCc2c(F)cccc2F)c2nc(C)c(C(=O)NNc3ccc(Cl)c(Cl)c3)n2c1 [Example 52] | 0.3
Cc1cc(C)cc(NNC(=O)c2c(C)nc3c(OCc4c(F)cccc4F)cc(C)cn23)c1 [Example 53] | 1
Cc1cc(OCc2c(F)cccc2F)c2nc(C)c(C(=O)NNc3cccc(Br)c3)n2c1 [Example 54] | 0.3
Cc1cc(OCc2c(F)cccc2F)c2nc(C)c(C(=O)NNc3ccc(F)cc3)n2c1 [Example 55] | 0.1

Compound | minimal effective concentration [µM]
Cc1cc(OCc2c(F)cccc2F)c2nc(C)c(C(=O)NNc3cnc4ccccc4n3)n2c1 [Example 56] | 1
Cc1cc(OCc2c(F)cccc2F)c2nc(C)c(C(=O)NNc3ccnc4c(F)cccc34)n2c1 [Example 57] | 1
Cc1cc(OCc2c(F)cccc2F)c2nc(C)c(C(=O)NNc3cc(Cl)c(C)cc3C)n2c1 [Example 58] | 0.3
Cc1cc(OCc2c(F)cccc2F)c2nc(C)c(C(=O)NOCc3ccccc3C#N)n2c1 [Example 59] | 1
Cc1cc(OCc2c(F)cccc2F)c2nc(C)c(C(=O)NNC(=O)C3CC3)n2c1 [Example 60] | 1
CCNNC(=O)c1c(C)nc2c(OCc3c(F)cccc3F)cc(C)cn12 [Example 61] | 10
Cc1cc(OCc2c(F)cccc2F)c2nc(C)c(C(=O)NN3CCCCCC3)n2c1 [Example 62] | 0.1
CCCCNNC(=O)c1c(C)nc2c(OCc3c(F)cccc3F)cc(C)cn12 [Example 63] | 3
Cc1cc(OCc2c(F)cccc2F)c2nc(C)c(C(=O)NNC3CCCC3)n2c1 [Example 64] | 3
Cc1cc(OCc2c(F)cccc2F)c2nc(C)c(C(=O)NNCc3csc(C)n3)n2c1 [Example 65] | 1
CSCCNNC(=O)c1c(C)nc2c(OCc3c(F)cccc3F)cc(C)cn12 [Example 66] | 3
Cc1cc(OCc2c(F)cccc2F)c2nc(C)c(C(=O)NNCc3ccccc3)n2c1 [Example 67] | 1
CCOC(=O)CNNC(=O)c1c(C)nc2c(OCc3c(F)cccc3F)cc(C)cn12 [Example 68] | 1
Cc1cc(OCc2c(F)cccc2F)c2nc(C)c(C(=O)NNC(C)C)n2c1 [Example 69] | 10
Cc1cc(OCc2c(F)cccc2F)c2nc(C)c(C(=O)NNC3CCCC3O)n2c1 (centres unmarked) [Example 70] | 0.3
Cc1cc(OCc2c(F)cccc2F)c2nc(C)c(C(=O)NNC3CCS(=O)(=O)C3)n2c1 (centres unmarked) [Example 71] | 1
Cc1cc(OCc2c(F)cccc2F)c2nc(C)c(C(=O)NNC3CS(=O)(=O)CC3C)n2c1 (centres unmarked) [Example 72] | 3
Cc1cc(OCc2c(F)cccc2F)c2nc(C)c(C(=O)NNC3CS(=O)(=O)CC3O)n2c1 (centres unmarked) [Example 73] | 3
Cc1cc(OCc2c(F)cccc2F)c2nc(C)c(C(=O)NNC3CCCCC3)n2c1 [Example 74] | 3
Cc1cc(OCc2c(F)cccc2F)c2nc(C)c(C(=O)NNC(=O)CN)n2c1 [Example 75, N′-(Aminoacetyl)-8-[(2,6-difluoroenzyl)oxy]-2,6-dimethylimidazo[1,2-a]pyridine-3-carbohydrazide] | 1
Cc1cc(OCc2c(F)cccc2F)c2nc(C)c(C(=O)NNC(=O)CN3CCOCC3)n2c1 [Example 76, 8-[(2,6-Difluorobenzyl)oxy]-2,6-dimethyl-N′-(morpholin-4-ylacetyl)imidazo[1,2-a]pyridine-3-carbohydrazide] | 0.3
Cc1cc(OCc2c(F)cccc2F)c2nc(C)c(C(=O)NOCC3CC3)n2c1 [Example 77, N-(Cyclopropylmethoxy)-8[(2,6-difluorobenzyl)oxy]-2,6-dimethylimidazo[1,2-a]pyridine-3-carboxamide] | 0.3
Cc1cc(OCc2c(F)cccc2F)c2nc(C)c(C(=O)NN3CCC(C(F)(F)F)C3)n2c1 (centres unmarked) [Example 79, 8-[(2,6-Difluorobenzyl)oxy]-2,6-dimethyl-N-[3-(trifluoromethyl)pyrrolidin-1-yl]imidazo[1,2-a]pyridine-3-carboxamide] | 0.1
Cc1cc(OCc2c(F)cccc2F)c2nc(C)c(C(=O)NNC3CCS(=O)(=O)CC3)n2c1 [Example 80, 8-[(2,6-Difluorobenzyl)oxy]-N′-(1,1-dioxidotetrahydro-2H-thiopyran-4-yl)-2,6-dimethylimidazo[1,2-a]pyridine-3-carbohydrazide] | 2
Cc1cc(OCc2c(F)cccc2F)c2nc(C)c(C(=O)NOCC(F)(F)F)n2c1 [Example 81, 8-[(2,6-Difluorobenzyl)oxy]-2,6-dimethyl-N-(2,2,2-trifluoroethoxy)imidazo[1,2-a]pyridine-3-carboxamide] | 0.65
